Assays:
Phytophthora infestans = format: in vivo; details: tomato plants, protective spray, application rate 50 g/ha, evaluation three days after inoculation; 100% = no infection
[1] = logP determination by HPLC (EEC Directive 79/831 Annex V. A8); format: physicochemical; details: gradient method, acetonitrile/0,1% aqueous phosphoric acid
Method: The logP values were determined in accordance with EEC Directive 79/831 Annex V. A8 by HPLC (Gradient method, acetonitrile/0,1% aqueous phosphoric acid)

Structure (SMILES)	Efficacy in % (Phytophthora infestans)	chromatographic logP [1]
Cc1noc(C)c1S(=O)(=O)n1cc(Cl)c(Cl)c1C#N [drawing 10]	95%	–
Cc1noc(C)c1S(=O)(=O)n1c(Br)c(Br)c(Br)c1C#N [Example 3]	–	3.58
Cc1noc(C)c1S(=O)(=O)n1cc(Cl)c(Cl)c1C#N [drawing 11]	94%	–
Cc1noc(C)c1S(=O)(=O)n1c(Br)c(Br)c(Br)c1C#N [drawing 9]	98%	–
Cc1noc(C)c1S(=O)(=O)n1cc(Cl)c(Cl)c1C#N [Example 11]	–	3.13
Cc1noc(C)c1S(=O)(=O)n1c(C)c(Br)c(Br)c1C#N [Example 1, 3,4-dibromo-1-[(3,5-dimethyl-4-isoxazolyl)-sulfonyl]-5-methyl-1H-pyrrole-2-carbonitrile]	–	3.62

Reference: US20040077880A1 (priority 2000, published 2004)
